Source: paper PMC8695447, “Novel Small Molecules Capable of Blocking mtRAS-Signaling Pathway” (Frontiers in Oncology, 2021)

Assays:
Format in all cases: cell-based
Ba/F3-NRAS-G12V cells = assay: Anti-proliferation assay (CellTiter Glo) on Ba/F3-NRAS-G12V; conditions: Mus musculus, BaF3; 72 h treatment; average with SD (n = 3, duplicate)
Method: (§1) Ba/F3-parental, OCI-AML3, U397 cells were purchased from DSMZ. MDA-MB-231, HCT-116, AsPC-1, H358, HT-29, SW480, and DU-145 cells were obtained from KCLB. MDA-MB-468 cells were obtained from ATCC. All cells were maintained in RPMI with 10% FBS and antibiotics. Cells were grown in a humidified 5% CO2 incubator at 37°C. Ba/F3-parental cells were grown in the presence of 10 ng/ml IL-3. NRAS-G12D or NRAS-G12V transformed Ba/F3 cell lines (Ba/F3-NRAS-G12D, and Ba/F3-NRAS-G12V, respectively) were cultured without IL-3, which were established by the procedure described as previously ([30]).
(§2) Approximately 3.0 × 10^3 cells/well were seeded in a 96-well cell culture plate. After stabilization, 1/3 serially diluted compound in DMSO was treated to the cell. […] All GI50 values were obtained in duplicate with three independent assays and averages with standard deviation are presented.

DU-145 (KRAS-G12V) = assay: Anti-proliferation assay on DU-145; conditions: Homo sapiens, DU-145; 72 h treatment; average with SD (n = 3, duplicate)
Method: as §1, §2

[1] = system: phospho-70S6K1, -JNK, -p38 in Ba/F3-NRAS-G12D and OCI-AML cells; assay: Western blot, ACK1 and GCK downstream signaling (phospho-70S6K1, -JNK, -p38); conditions: 0.1, 1, 10 μM for 2 h
Method: Approximately 1 × 10^6 cells per well were seeded in a 6-well cell culture plate. After cell adhesion, each compounds were treated for 2 h with indicated concentration and conducted brief washing twice by ice-cold PBS. Cells were lysed by NP40 buffer (50 mM Tris–HCl pH 7.4, 1% NP40, 2 mM EDTA, 150 mM NaCl) in the presence of protease inhibitor cocktail (Roche, #11873580001) and phosphatase inhibitor cocktail (Roche, #04906837001). Each sample was loaded with same amount of total protein and separated by SDS-PAGE gel. After transferred to nitrocellulose membrane, blocking with 5% skim milk (in TBS/T) was followed. The membrane was incubated 4°C for overnight with uniformly diluted primary antibodies at 1:1,000 (v/v) in TBS/T. The following primary antibodies were used: anti-p-AKT (Cell Signaling, #9271), anti-p-ERK1/2 (Cell Signaling, #4370), anti-PARP (Cell Signaling, #9542), anti-GAPDH (Cell Signaling, #5174), anti-p-70S6K1 (Cell Signaling, #9204), anti-p-JNK(Cell Signaling, #9251), anti-p-p38 (Cell Signaling, #9216), and anti-p-MEK1/2 (Santa Cruz, sc-81503). […] Chemiluminescence signals were detected by ImageQuant™ LAS 4000 (GE Healthcare). […]

[2] = system: phospho-AKT, -MEK, -ERK in Ba/F3-NRAS-G12D and Ba/F3-NRAS-G12V cells; assay: Western blot, phospho-AKT, -MEK, -ERK in Ba/F3 cells transformed with mtRAS; conditions: 2 h; for inhibitory capabilities on phosphorylation level of MEK, ERK, and AKT at 1 µM relative to GNF-7: Ba/F3 mtRAS cells; for phospho-AKT, -MEK, -ERK levels at 10 µM: Ba/F3 cells transformed with mtRAS (NRAS-G12D and NRAS-G12V)
Method: Approximately 1 × 10^6 cells per well were seeded in a 6-well cell culture plate. After cell adhesion, each compounds were treated for 2 h with indicated concentration and conducted brief washing twice by ice-cold PBS. Cells were lysed by NP40 buffer (50 mM Tris–HCl pH 7.4, 1% NP40, 2 mM EDTA, 150 mM NaCl) in the presence of protease inhibitor cocktail (Roche, #11873580001) and phosphatase inhibitor cocktail (Roche, #04906837001). Each sample was loaded with same amount of total protein and separated by SDS-PAGE gel. After transferred to nitrocellulose membrane, blocking with 5% skim milk (in TBS/T) was followed. The membrane was incubated 4°C for overnight with uniformly diluted primary antibodies at 1:1,000 (v/v) in TBS/T. The following primary antibodies were used: anti-p-AKT (Cell Signaling, #9271), anti-p-ERK1/2 (Cell Signaling, #4370), anti-PARP (Cell Signaling, #9542), anti-GAPDH (Cell Signaling, #5174), anti-p-70S6K1 (Cell Signaling, #9204), anti-p-JNK(Cell Signaling, #9251), anti-p-p38 (Cell Signaling, #9216), and anti-p-MEK1/2 (Santa Cruz, sc-81503). Each membrane was incubated with HRP-conjugated goat anti-Rabbit secondary antibody (Gendepot, SA002-500) or HRP-conjugated goat anti-Mouse secondary antibody (Gendepot, SA001-500) for 1 h (1:10,000, v/v) in TBS/T at room temperature and followed ECL solution treatment. Chemiluminescence signals were detected by ImageQuant™ LAS 4000 (GE Healthcare).
Figure 1 The effects of (A) SIJ1795 and (B) SIJ1772 on MAPK and PI3K/AKT signaling pathways in Ba/F3 cells transformed with mtRAS (NRAS-G12D and NRAS-G12V). Cells were treated with 0.1, 1, and 10 μM of SIJ1795, SIJ1772, and GNF-7 for 2 h. Western blot analysis was conducted to evaluate the phospho-AKT, -MEK, -ERK levels. GAPDH was used as the loading control.

[3] = system: cleaved PARP in cancer cells harboring mtRAS; assay: Western blot, cleaved PARP in cancer cells harboring mtRAS; conditions: 1 μM, 24 h
Method: Approximately 1 × 10^6 cells per well were seeded in a 6-well cell culture plate. After cell adhesion, each compounds were treated for 2 h with indicated concentration and conducted brief washing twice by ice-cold PBS. Cells were lysed by NP40 buffer (50 mM Tris–HCl pH 7.4, 1% NP40, 2 mM EDTA, 150 mM NaCl) in the presence of protease inhibitor cocktail (Roche, #11873580001) and phosphatase inhibitor cocktail (Roche, #04906837001). Each sample was loaded with same amount of total protein and separated by SDS-PAGE gel. After transferred to nitrocellulose membrane, blocking with 5% skim milk (in TBS/T) was followed. […] Chemiluminescence signals were detected by ImageQuant™ LAS 4000 (GE Healthcare).
Figure 4 The effects of (A) SIJ1795 and (B) SIJ1772 on apoptosis induction in cancer cells harboring mtRAS. […] (C) Apoptotic cell population (annexin V-positive) was determined by flow cytometry analysis (n = 3). […] Statistical significance was determined using a one-way ANOVA analysis (*p < 0.05, **p < 0.01, ***p < 0.001).

[4] = system: cancer cells with mtRAS including H358, AsPC-1, DU-145, SW480, and MDA-MB-231; assay: Invasion assay (Boyden chamber assay); conditions: 0.01 µM, 48 h
Method: For invasion assay, Boyden chamber assay carried out. Transwell insert was precoated with matrigel (Corning, #354248). Cells were seeded in the transwell chamber insert (8 μm pore size) at a density of 5.0 × 10^5 cells/well after serum starvation for overnight. The cells were incubated with 0.01 μM concentration of each compounds of for 48 h at 37°C. The non-invaded cells were eliminated. Crystal violet solution was used to staining the invaded cells. Cells were observed and photographed with 100× magnification. Stained cells were automatically counted and quantified (n = 3).
Figure 6 The effects of SIJ1795 and SIJ1772 on migration and invasion activities of cancer cells harboring mtRAS. (A) Scratch assay result for cell migration ability determination. Each cell monolayers were scratched and incubated with test compounds at 0.01 μM. After 8 h (MDA-MB-231) or 24 h (DU-145, SW480, HCT-116) or 48 h (AsPC-1) or 72 h (HT-29), cells were stained with crystal violet. Migrated areas were photographed with 40× magnification. Migrated area was determined by ImageJ (n = 3). (B) Boyden chamber assay result for cell invasion ability determination. […] Stained cells were counted by ImageJ (n = 3). Statistical significance was determined using a one-way ANOVA analysis (*p < 0.05, **p < 0.01, ***p < 0.001, ****p < 0.0001).

SMILES | GI50 (Ba/F3-NRAS-G12V cells) [nM] | GI50 (DU-145 (KRAS-G12V)) [nM] | phosphorylation of 70S6K1 (downstream molecule of ACK), JNK, p38 (downstream molecule of GCK) [1] | inhibitory capabilities on phosphorylation level of MEK, ERK, and AKT at 1 µM relative to GNF-7 [2] | phospho-AKT, -MEK, -ERK levels at 10 µM [2] | level of cleaved PARP in cancer cells harboring mtRAS [3] | reduction in invasion capabilities [4]
Cc1ccc(NC(=O)c2cccc(C(F)(F)F)c2)cc1N1Cc2cnc(Nc3cnn(C4CCN(S(C)(=O)=O)CC4)c3)nc2N(C)C1=O [SIJ1772, N-(4-Methyl-3-(1-methyl-7-((1-(1-(methylsulfonyl)piperidin-4-yl)-1H-pyrazol-4-yl)amino)-2-oxo-1,4-dihydropyrimido[4,5-d]pyrimidin-3(2H)-yl)phenyl)-3-(trifluoromethyl)benzamide] | 96 ± 9 | 29 ± 3 | effectively inhibited | slightly increased relative to that of GNF-7 | completely inhibited | notably increased | over 50%
CCN1CCN(c2cccc(Nc3ncc4c(n3)N(C)C(=O)N(c3cc(NC(=O)c5cccc(C(F)(F)F)c5)ccc3C)C4)c2)CC1 [SIJ1795, N-(3-(7-((3-(4-Ethylpiperazin-1-yl)phenyl)amino)-1-methyl-2-oxo-1,4-dihydropyrimido[4,5-d]pyrimidin-3(2H)-yl)-4-methylphenyl)-3-(trifluoromethyl)benzamide] | 75 ± 45 | 77 ± 43 | effectively inhibited | slightly increased relative to that of GNF-7 | completely inhibited | notably increased | over 50%
